Laboratory results published in ChEMBL document CHEMBL1212698, “A forward chemical genetic screen reveals an inhibitor of the Mre11-Rad50-Nbs1 complex” (Nat Chem Biol, 2008).
Activity calls are given as the source filed them. The rule behind the calls is not given here.

Key:
Xenopus laevis [1] = organism: Xenopus laevis; assay: (§1) Inhibition of DNA double strand break-induced ataxia telangiectasia mutated activation in Xenopus laevis extract assessed as inhibition of H2AX phosphorylation
Xenopus laevis [2] = organism: Xenopus laevis; assay: Inhibition of ataxia telangiectasia mutated binding to streptavidin-bound biotinylated DNA in Xenopus laevis extract up to 1 mM
Xenopus laevis [3] = organism: Xenopus laevis; assay: Inhibition of ataxia telangiectasia mutated-dependent Chk2 phosphorylation in Xenopus laevis extract assessed as electrophoretic mobility by Western blot analysis
[4] = Cell cycle arrest in human TOSA4 cells assessed as accumulation at G2 phase at 50 uM after 24 hrs by FACS analysis; assay type: functional, cell-based
[5] = Cell cycle arrest in human TOSA4 cells assessed as accumulation at G2 phase at 100 uM after 24 hrs by FACS analysis; assay type: functional, cell-based
[6] = molecular target: T1, Double-strand break repair protein MRE11 (Homo sapiens) (UniProt P49959); assay: Inhibition of human Mre11 nuclease activity at 100 uM
T1 sequence (whole entry): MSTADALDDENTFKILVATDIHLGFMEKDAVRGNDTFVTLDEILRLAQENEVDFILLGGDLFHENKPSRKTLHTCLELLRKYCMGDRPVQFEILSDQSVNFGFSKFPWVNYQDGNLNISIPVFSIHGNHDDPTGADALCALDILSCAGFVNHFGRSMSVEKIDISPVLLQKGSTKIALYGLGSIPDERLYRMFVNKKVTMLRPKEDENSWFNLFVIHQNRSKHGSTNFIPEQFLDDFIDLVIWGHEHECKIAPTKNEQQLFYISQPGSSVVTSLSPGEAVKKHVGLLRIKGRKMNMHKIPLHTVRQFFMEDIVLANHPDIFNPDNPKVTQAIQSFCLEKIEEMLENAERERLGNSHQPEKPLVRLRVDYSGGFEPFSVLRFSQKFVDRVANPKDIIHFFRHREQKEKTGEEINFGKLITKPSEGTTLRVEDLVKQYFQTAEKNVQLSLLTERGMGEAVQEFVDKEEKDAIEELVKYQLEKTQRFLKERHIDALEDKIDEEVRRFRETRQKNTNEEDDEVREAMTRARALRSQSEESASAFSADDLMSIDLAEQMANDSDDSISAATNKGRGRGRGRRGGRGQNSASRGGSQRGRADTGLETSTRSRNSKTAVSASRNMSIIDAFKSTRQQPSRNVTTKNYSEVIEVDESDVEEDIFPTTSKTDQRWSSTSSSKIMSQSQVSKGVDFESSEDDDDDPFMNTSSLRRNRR

Xenopus laevis [7] = organism: Xenopus laevis; assay: Inhibition of ataxia telangiectasia mutated-dependent Nbs1 phosphorylation in Xenopus laevis extract assessed as electrophoretic mobility by Western blot analysis
Xenopus laevis [8] = organism: Xenopus laevis; assay: Inhibition of DNA double strand break-induced Mre11/Rad50/Nbs1-dependent ATM autophosphorylation at Ser1981
U2OS [9] = assay: Cell cycle arrest in human U2OS cells assessed as accumulation at G2 phase at 100 uM after 24 hrs by FACS analysis; assay type: functional, cell-based
Xenopus laevis [10] = organism: Xenopus laevis; assay: Inhibition of Mer11 binding to streptavidin-bound biotinylated DNA in Xenopus laevis extract up to 1 mM
U2OS [11] = assay: Inhibition of 10 Gy irradiation-induced G2/M check point in human U2OS cells using G2 synchronized cells at 25 uM after 24 hrs by FACS analysis; assay type: functional, cell-based
[12] = molecular target: T1, Double-strand break repair protein MRE11 (Homo sapiens); assay: Inhibition of human Mre11 ExoIII nuclease activity at 100 uM
HEK293 [13] = assay: Cytotoxicity against human HEK293 cells at 25 uM after 24 hrs; assay type: cell-based; details: hek293, 24 h
[14] = Inhibition of dimeric recombinant ataxia telangiectasia mutated activation in Xenopus laevis extract in presence of DNA, Mre11/Rad50/Nbs1
Homo sapiens = organism: Homo sapiens; assay: Inhibition of human Mre11/Rad50/Nbs1-dependent DNA tethering assessed as Rad50-associated adenylate kinase activity at 0.05 to 0.8 mM
[15] = as §1
Nucleic Acid = assay: Inhibition of DNA tethering in Xenopus laevis extract at 10 uM; assay type: nucleic-acid assay
Xenopus laevis [16] = organism: Xenopus laevis; assay: Stimulation of Mre11/Rad50/Nbs1-dependent DNA tethering in Xenopus laevis extract at 100 uM
TOSA4 = assay: Inhibition of gene conversion in human TOSA4 cells transfected with I-Sec1 expressing plasmid assessed as decrease in GFP-positive cells at 25 uM after 24 hrs by gene conversion assay; assay type: functional, cell-based
Xenopus laevis [17] = organism: Xenopus laevis; assay: Induction of FLAG-tagged Mre11/Rad50/Nbs1 dissociation in Xenopus laevis extract at 100 uM
HEK293 [18] = assay: Cytotoxicity against human HEK293 cells at 50 uM after 24 hrs; assay type: cell-based; details: hek293, 24 h
Xenopus laevis [19] = organism: Xenopus laevis; assay: Inhibition of monomeric ataxia telangiectasia mutated catalytic activity at 50 uM

In the case of O=c1cc(-c2ccccc2)[nH]c(=S)[nH]1, the inhibition (Xenopus laevis [1]) is reported as “inactive”.

With N=C1NC(=O)/C(=C/c2ccc(O)cc2)S1 [MIRIN] the inhibition (Xenopus laevis [2]) was “inactive”, the inhibition (Xenopus laevis [3]) was “Active” and the Activity [4] was “Active”. The Activity [5] was “Active”, the inhibition [6] was “Active” and the inhibition (Xenopus laevis [7]) was “Active”. The inhibition (Xenopus laevis [8]) was “Active”, the Activity (U2OS [9]) was “Active” and the inhibition (Xenopus laevis [10]) was “inactive”. The inhibition (U2OS [11]) was “Active”, the inhibition [12] was “inactive” and the Activity (HEK293 [13]) was “Non-toxic”. The IC50 [14] was 12 µM, the Activity (Homo sapiens) was “inactive” and the IC50 [15] was 66 µM. The inhibition (Nucleic Acid) was “inactive”, the Activity (Xenopus laevis [16]) was “Active” and the inhibition (TOSA4) was “Active”. For the same molecule, the Activity (Xenopus laevis [17]) was “inactive”, the Activity (HEK293 [18]) was “Non-toxic” and the inhibition (Xenopus laevis [19]) was “inactive”.
